Source: paper PMC11001197, “The PII protein interacts with the Amt ammonium transport and modulates nitrate/nitrite assimilation in mycobacteria” (Frontiers in Microbiology, 2024)

Biological target: M. tb PII (GlnB) (Mycobacterium tuberculosis, UniProt P9WN31)
Sequence (P9WQ65 417-477): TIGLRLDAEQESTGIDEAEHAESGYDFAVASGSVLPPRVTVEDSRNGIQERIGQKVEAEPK
Sequence (P9WN31 whole entry): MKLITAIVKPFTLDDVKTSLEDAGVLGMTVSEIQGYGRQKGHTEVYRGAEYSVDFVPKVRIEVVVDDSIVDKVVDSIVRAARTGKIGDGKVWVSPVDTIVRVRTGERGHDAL

## O=C(O)CCC(=O)C(=O)O [2-oxoglutarate]
  Ni-NTA pull-down of AmtCTR by His-PII, SDS-PAGE: PII is able to interact with AmtCTR being negatively modulated by 2-OG
